Literature values, collected in patent publication EP0893486B1, “Acrylic compositions for consolidation of soils and concrete in general” (Draco Italiana S.p.A., priority 1997, dated 1999).

Settings: classification of the single monomer

polyethyleneglycol-400-diacrylate
classified as: irritants

C=C(C)C(=O)OCC(CC)(COC(=O)C(=C)C)COC(=O)C(=C)C [trimethylolpropanetrimethacrylate]
classified as: irritants

C=CC(=O)OCC(CC)(COCC(CC)(COC(=O)C=C)COC(=O)C=C)COC(=O)C=C [Ditrimetbylolpropanetetraacrylate]
classified as: irritants

polyethyleneglycol-600-dimethacrylate
classified as: irritants

C=C(C)C(=O)OCCO [2-hydroxyethylmethacrylate]
classified as: irritants

trimethylolpropanetriacrylate-ethoxylate
classified as: irritants

polyethyleneglycolmonoacrylate
classified as: irritants
